Values joined by “and” are separate entries in the source; they are usually repeats but may differ in a detail not shown here. Equal values may be shown once. Where a SMILES comes first, the peptide text is derived from it. [ ]: non-standard residue; d: D form. The star is where a group is joined. X1 = CN1C(=CC=CC=CC2=[N+](CCCCCC(=O)NCCN3C(=O)CC(*)C3=O)c3ccccc3C2(C)C)C(C)(C)c2ccccc21; Aib = CC(C)(N)C(=O)O
Key:
Nluc–GIPR (hGIPR) = target: T1, Nluc–GIPR (hGIPR) (Homo sapiens, UniProt P48546); assay: NanoBRET saturation binding assay, HEK293T cells
T1 construct: expressed in transfected cells; host or cells: HEK293T cells, transient expression
T1 sequence (P48546 22-466): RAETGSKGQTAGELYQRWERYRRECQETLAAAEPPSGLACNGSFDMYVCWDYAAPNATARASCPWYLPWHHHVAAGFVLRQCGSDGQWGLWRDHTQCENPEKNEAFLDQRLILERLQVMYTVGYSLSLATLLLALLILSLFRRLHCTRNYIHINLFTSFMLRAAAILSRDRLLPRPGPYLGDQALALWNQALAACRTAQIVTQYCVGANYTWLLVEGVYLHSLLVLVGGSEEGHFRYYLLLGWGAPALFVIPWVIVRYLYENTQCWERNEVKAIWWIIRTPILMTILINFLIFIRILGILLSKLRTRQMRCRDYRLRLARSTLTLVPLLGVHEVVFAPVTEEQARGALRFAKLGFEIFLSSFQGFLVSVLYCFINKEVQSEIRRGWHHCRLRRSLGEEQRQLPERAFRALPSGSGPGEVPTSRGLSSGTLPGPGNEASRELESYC
Description: (§1) HEK293T cells (RRID:CVCL_0063) were cultured in DMEM/F12 GlutaMAX (ThermoFisher), supplemented with 10% FBS and 1% antibiotic-antimycotic solution and cultured at 37 °C, 5% CO2. HEK293T cells were authenticated at source using STR profiling. […] Media was then removed and the cells were incubated in PBS supplemented with 0.1% BSA and 0.01% NanoGlo (Promega). […] Plates were read using a PheraSTAR microplate reader, using the NanoBRET filter module. BRET ratios (λacceptor/λdonor) were calculated, and saturation data fit using the ‘One Site – Specific Binding’ equation of GraphPad Prism 10. Competition binding was fit using the ‘One Site – Fit Ki’ equation.

Nluc–GLP1R (hGLP1R) = target: T2, Nluc–GLP1R (hGLP1R) (Homo sapiens, UniProt P43220); assay: NanoBRET saturation binding assay, HEK293T cells
T2 construct: expressed in transfected cells; host or cells: HEK293T cells, transient expression
T2 sequence (P43220 24-463): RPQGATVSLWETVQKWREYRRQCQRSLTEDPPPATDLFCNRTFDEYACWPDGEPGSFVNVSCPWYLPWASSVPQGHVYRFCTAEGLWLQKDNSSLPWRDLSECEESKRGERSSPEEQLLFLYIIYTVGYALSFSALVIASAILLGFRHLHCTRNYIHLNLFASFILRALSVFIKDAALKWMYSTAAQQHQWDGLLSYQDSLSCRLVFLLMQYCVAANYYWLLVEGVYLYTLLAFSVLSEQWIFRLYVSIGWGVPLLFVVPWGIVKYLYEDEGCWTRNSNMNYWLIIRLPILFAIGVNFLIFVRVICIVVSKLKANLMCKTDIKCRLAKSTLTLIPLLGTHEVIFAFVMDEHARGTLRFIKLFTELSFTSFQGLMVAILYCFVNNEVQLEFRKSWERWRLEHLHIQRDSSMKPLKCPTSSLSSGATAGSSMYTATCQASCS
Description: as §1

C57BL/N mice = assay: Food intake study (FED3 devices); format: in vivo, mouse; conditions: 10 nmol kg^−1 s.c., dark phase and cumulative 24 h, n = 8 mice
Description: Male and female 12–14 week old C57BL/N mice were singly housed in a 12 h dark–light cycle (14:00–02:00 h) and habituated to FED3 feeding devices for 7 days before commencing the study. All mice were kept on a 12 h light–dark cycle at 20–24 °C and 45–65% relative humidity (typically 21 °C and 55%). On test days, mice were fasted for 3 h before onset of the dark phase by removal of the FED3 devices. […] The study was performed using a three-way crossover design. A 1-week washout period was observed between experimental days. FED3 devices were checked, serviced and food was topped up daily.

[1] = system: Glp1r^WT/WT, Glp1r^WT/KO and Glp1r^KO/KO mice; assay: Glucose tolerance testing (IPGTT); format: in vivo, mouse; parameters: Area under the curve for IPGTT: unit not given beside the values; conditions: for Area under the curve for IPGTT: individual mice
Description: Glucose was measured in blood from the tail vein at 0, 15, 30, 60, 90 and 120 min post glucose challenge. Mice were socially housed in specific-pathogen-free conditions under a 12 h light–dark cycle with ad libitum access to food and water, relative humidity 55 ± 10% and temperature 21 ± 2 °C.

SC-islets = assay: Labelling of iPS cell-derived islet-like structures (SC-islets); format: cell-based, human; conditions: n = 12 SC-islets from two differentiations
Description: For immunostaining, labelled islets were washed three times with PBS, then incubated with 2–4% formalin for 15 min at room temperature (16–25 °C). Islets were again washed three times with PBS, then incubated in permeabilizing blocking buffer for 1 h at room temperature before incubation with primary antibody overnight at 4 °C. The following day, islets were incubated with secondary antibody for 2 h at room temperature before mounting onto microscope slides with […] HardSet with DAPI or Everbrite Hardset. Primary and secondary antibodies are listed in Supplementary Table 5.
Human iPS cells (ALSTEM, iPS11) were maintained on iPS cell-qualified Matrigel (Corning, 354277) in mTeSR+ media (StemCell Technologies, 05826). ALSTEM iPS11 cells were authenticated at source by testing for expression of OCT4 and TRA-1-60, as well as alkaline phosphatase activity. Differentiation to islet-like structures (SC-islets) was carried out in a suspension-based, magnetic CELLSPIN bioreactor system ([…]). Differentiation media was changed daily by letting spheres settle by gravity for 3–10 min. Most of the supernatant was removed by aspiration; fresh media was added and bioreactors were placed back on the stirrer system. SC-islet differentiation was based on published protocols[35],[49]
Probe labelling was analysed using corrected total cell fluorescence, which is integrated density − (area of selected cell × mean fluorescence of background readings)[52],[53]. Colocalization was determined using Manders’ coefficient, which calculates the proportion of pixels in one channel that also show intensity from both channels. Full width at half maximum was used to analyse labelling patterns at the membrane versus cytoplasm. All analyses were performed in ImageJ (NIH), with brightness and contrast linearly adjusted across the entire image for presentation purposes and applied equally between all states under examination.

[2] = One site -- Specific binding, fit of all pooled points

With `CC[C@H](C)[C@H](NC(=O)[C@H](CC(C)C)NC(=O)[C@H](Cc1c[nH]c2ccccc12)NC(=O)[C@H](CCC(N)=O)NC(=O)[C@@H](NC(=O)[C@H](Cc1ccccc1)NC(=O)[C@H](C)NC(=O)[C@H](CCCCN)NC(=O)[C@H](CCC(N)=O)NC(=O)[C@H](C)NC(=O)[C@@H](NC(=O)[C@H](CCCCN)NC(=O)[C@H](CC(=O)O)NC(=O)[C@H](CC(C)C)NC(=O)C(C)(C)NC(=O)[C@@H](NC(=O)[C@H](CO)NC(=O)[C@H](Cc1ccc(O)cc1)NC(=O)[C@H](CC(=O)O)NC(=O)[C@H](CO)NC(=O)[C@@H](NC(=O)[C@H](Cc1ccccc1)NC(=O)[C@@H](NC(=O)CNC(=O)[C@H](CCC(=O)O)NC(=O)C(C)(C)NC(=O)[C@@H](N)Cc1ccc(O)cc1)[C@@H](C)O)[C@@H](C)O)[C@@H](C)CC)[C@@H](C)CC)C(C)C)C(=O)N[C@@H](C)C(=O)NCC(=O)NCC(=O)N1CCC[C@H]1C(=O)N[C@@H](CO)C(=O)N[C@@H](CO)C(=O)NCC(=O)N[C@@H](C)C(=O)N1CCC[C@H]1C(=O)N1CCC[C@H]1C(=O)N1CCC[C@H]1C(=O)N[C@@H](CSC1CC(=O)N(CCNC(=O)CCCCC[N+]2=C(C=CC=CC=C3N(C)c4ccccc4C3(C)C)C(C)(C)c3ccccc32)C1=O)C(N)=O` (stereo partly drawn) [daLUXendin660] (H-Y[Aib]EGTFTSDYSI[Aib]LDKIAQKAFVQWLIAGGPSSGAPPPC(X1)-NH2) the “Bmax best-fit (nM), hGIPR” value (Nluc–GIPR (hGIPR); Nluc-tagged hGIPR, NanoBRET saturation, n = 3 independent repeats) was 0.0080 nM, the “Bmax, best-fit value, GIPR” value (Nluc–GIPR (hGIPR); [2]) was 0.01181 and the “Bmax best-fit (nM), hGLP1R” value (Nluc–GLP1R (hGLP1R); Nluc-tagged hGLP1R, NanoBRET saturation, n = 3 independent repeats) was 0.0140 nM. The “Bmax, best-fit value, GLP1R” value (Nluc–GLP1R (hGLP1R); [2]) was 0.0163, the “effect on food intake” value (C57BL/N mice) was “reduced food intake” and the “effect on blood glucose in glucose tolerance test” value ([1]; 10 nmol kg^−1, Glp1r^WT/WT and Glp1r^WT/KO mice) was “substantial glucose-lowering effects”. The “Area under the curve for IPGTT” value ([1]; GLP1RKO/KO (KO) mice) was 1726.5 and 1785 and 1967.25 and 1908.75 and 1827 and 1220.25 and 1424.25, the “Area under the curve for IPGTT” value ([1]; GLP1RWT/WT and GLP1RWT/KO (WT) mice) was 2001 and 1668.75 and 1041.75 and 969.75 and 1068 and the “Area under the curve for IPGTT, mean” value ([1]; KO mice, group mean (n = 6 TZP, n = 7 daLUX)) was 1694. For the same compound, the “Area under the curve for IPGTT, mean” value ([1]; WT mice, group mean (n = 6 TZP, n = 5 daLUX)) was 1350, the “Area under the curve for IPGTT, Mean Diff. WT Veh vs. WT treated” value ([1]; WT mice, one-way ANOVA, Benjamini, Krieger and Yekutieli) was 966.4 and the “Area under the curve for IPGTT, Mean Diff. WT treated vs. KO treated” value ([1]; WT vs. KO mice, one-way ANOVA, Benjamini, Krieger and Yekutieli) was -344.3. For the same compound, the “corrected total cell fluorescence, α cells” value (SC-islets; GCG+ cells) was 2.30 × 10^5 ± 1.59 × 10^5 AU, the “corrected total cell fluorescence, β cells” value (SC-islets; INS+ cells) was 3.60 × 10^5 ± 2.58 × 10^5 AU and the “corrected total cell fluorescence, δ cells” value (SC-islets; SST+ cells) was 2.16 × 10^5 ± 1.46 × 10^5 AU.

— PMC12373499 (Nature Metabolism, 2025)
